Assay results taken from US7767659B2, “Synthesis of naturally occurring ecteinascidins and related compounds” (Pharma Mar, S.A., priority 2002, dated 2010).

Experiments:
HT-29 = test: cells; details: Homo sapiens, HT-29, 48 h
Summary of the method: (§1)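 Colorimetric SRB read (490 nm) on triplicate wells after 48 h at 37 °C, 5% CO2. Dose range 10 to 10^−8 μg/ml; 5×10^3 cells/well pre-attached 18 h.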

A-549 = test: cells; details: Homo sapiens, A549, 48 h
Summary of the method: as §1

LoVo = test: cells; details: Homo sapiens, LoVo, 48 h
Summary of the method: as §1

IGROV-1 = test: Inhibition of cells growth by colorimetric assay (SRB); details: Homo sapiens, IGROV-1, 48 h
Summary of the method: as §1

IGROV-ET = test: as above; details: Homo sapiens, 48 h
Summary of the method: as §1

LNCaP = test: as above; details: Homo sapiens, LNCaP, 48 h
Summary of the method: as §1

PANC-1 = test: as above; details: Homo sapiens, PANC-1, 48 h
Summary of the method: as §1

SK-BR-3 = test: as above; details: Homo sapiens, SK-BR-3, 48 h
Summary of the method: as §1

LoVo-Dox = test: as above; details: Homo sapiens, 48 h
Summary of the method: as §1

HeLa = test: as above; details: Homo sapiens, HeLa, 48 h
Summary of the method: as §1

K-562 = test: as above; details: Homo sapiens, K562, 48 h
Summary of the method: as §1

DU-145 = test: as above; details: Homo sapiens, DU-145, 48 h
Summary of the method: as §1

HeLa-APL = test: as above; details: Homo sapiens, 48 h, read-out: LC50 HELA-APL
Summary of the method: as §1

SK-MEL-28 = test: as above; details: Homo sapiens, SK-MEL-28, 48 h
Summary of the method: as §1

Structure (SMILES): C=CCN1[C@@H]2c3c(cc(C)c(OC)c3O)C[C@H]1[C@H](C#N)N1C2[C@@H]2SCC(NC(=O)CCCCCCCCCCCCCCC)C(=O)OC[C@H]1c1c3c(c(C)c(OC(C)=O)c12)OCO3 (stereo partly shown) [compound 26]
- GI50 (HT-29; read-out: GI50 HT29): 11.6 µM
- CC50 (HT-29; read-out: LC50 HT29): 11.6 µM
- IC (TGI) (HT-29; read-out: TGI HT29): 11.6 µM
- GI50 (A-549; read-out: GI50 A549): 11.6 µM
- CC50 (A-549; read-out: LC50 A549): 11.6 µM
- IC (TGI) (A-549; read-out: TGI A549): 11.6 µM
- GI50 (LoVo; read-out: GI50 LOVO): 11.6 µM
- CC50 (LoVo; read-out: LC50 LOVO): 11.6 µM
- IC (TGI) (LoVo; read-out: TGI LOVO): 11.6 µM
- GI50 (IGROV-1; read-out: GI50 IGROV): 6.84 µM
- CC50 (IGROV-1; read-out: LC50 IGROV): 11.6 µM
- IC (TGI) (IGROV-1; read-out: TGI IGROV): 11.6 µM
- GI50 (IGROV-ET; read-out: GI50 IGROV-ET): 11.6 µM
- CC50 (IGROV-ET; read-out: LC50 IGROV-ET): 11.6 µM
- IC (TGI) (IGROV-ET; read-out: TGI IGROV-ET): 11.6 µM
- GI50 (LNCaP; read-out: GI50 LNCAP): 3.82 µM
- CC50 (LNCaP; read-out: LC50 LNCAP): 11.6 µM
- IC (TGI) (LNCaP; read-out: TGI LNCAP): 11.6 µM
- GI50 (PANC-1; read-out: GI50 PANC-1): 11.6 µM
- CC50 (PANC-1; read-out: LC50 PANC-1): 11.6 µM
- IC (TGI) (PANC-1; read-out: TGI PANC-1): 11.6 µM
- GI50 (SK-BR-3; read-out: GI50 SK-BR3): 4.23 µM
- CC50 (SK-BR-3; read-out: LC50 SK-BR3): 11.6 µM
- IC (TGI) (SK-BR-3; read-out: TGI SK-BR3): 9.2 µM
- GI50 (LoVo-Dox; read-out: GI50 LOVO-DOX): 11.6 µM
- CC50 (LoVo-Dox; read-out: LC50 LOVO-DOX): 11.6 µM
- IC (TGI) (LoVo-Dox; read-out: TGI LOVO-DOX): 11.6 µM
- GI50 (HeLa; read-out: GI50 HELA): 11.6 µM
- CC50 (HeLa; read-out: LC50 HELA): 11.6 µM
- IC (TGI) (HeLa; read-out: TGI HELA): 11.6 µM
- GI50 (K-562; read-out: GI50 K562): 2.3 µM
- CC50 (K-562; read-out: LC50 K562): 10.6 µM
- IC (TGI) (K-562; read-out: TGI K562): 4.94 µM
- GI50 (DU-145; read-out: GI50 DU145): 11.6 µM
- CC50 (DU-145; read-out: LC50 DU145): 11.6 µM
- IC (TGI) (DU-145; read-out: TGI DU145): 11.6 µM
- CC50 (HeLa-APL): 11.6 µM
- GI50 (SK-MEL-28; read-out: GI50 MEL-28): 11.6 µM
- CC50 (SK-MEL-28; read-out: LC50 MEL-28): 11.6 µM
- IC (TGI) (SK-MEL-28; read-out: TGI MEL-28): 11.6 µM
